Laboratory results from patent publication US9730914B2, “3,5-diaminopyrazole kinase inhibitors” (Axikin Pharmaceuticals, Inc., priority 2014, dated 2017).

Assays:
[1] = molecular target: T1, kinase domain protein of RC kinase (RCK) (Homo sapiens, UniProt Q56UN5); test: Kinase competition binding assay (Kd, qPCR readout), RC kinase; settings: Kd class, read-out: RCK Activity Level
T1 construct: made in house; host or cells: E. coli BL21-derived host (T7 phage) or HEK-293
T1 sequence (Q56UN5 1061-1324 limits assumed): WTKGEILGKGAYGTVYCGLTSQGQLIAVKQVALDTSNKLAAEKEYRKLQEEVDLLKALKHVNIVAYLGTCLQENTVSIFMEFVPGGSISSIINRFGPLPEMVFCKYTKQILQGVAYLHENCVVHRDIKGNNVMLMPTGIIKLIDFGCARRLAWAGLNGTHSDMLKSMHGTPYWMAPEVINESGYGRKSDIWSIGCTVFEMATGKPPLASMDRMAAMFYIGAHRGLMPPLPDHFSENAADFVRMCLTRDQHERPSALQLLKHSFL
Protocol: (§1) For most assays, kinase-tagged T7 phage strains were prepared in an E. coli host derived from the BL21 strain. E. coli were grown to log-phase and infected with T7 phage and incubated with shaking at 32° C. until lysis. The lysates were centrifuged and filtered to remove cell debris. The remaining kinases were produced in HEK-293 cells and subsequently tagged with DNA for quantitative PCR (qPCR) detection.
(§2) Streptavidin-coated magnetic beads were treated with biotinylated small molecule ligands for 30 minutes at room temperature to generate affinity resins for kinase assays. The liganded beads were blocked with excess biotin and washed with blocking buffer (SeaBlock (Pierce), 1% BSA, 0.05% Tween 20, 1 mM DTT) to remove unbound ligand and to reduce nonspecific binding. Binding reactions were assembled by combining kinases, liganded affinity beads, and test compounds in 1× binding buffer (20% SeaBlock, 0.17×PBS, 0.05% Tween 20, 6 mM DTT). All reactions were performed in polystyrene 96-well plates in a final volume of 0.135 mL. The assay plates were incubated at room temperature with shaking for 1 hour and the affinity beads were washed with wash buffer (1×PBS, 0.05% Tween 20). The beads were then re-suspended in elution buffer (1×PBS, 0.05% Tween 20, 0.5 μM non-biotinylated affinity ligand) and incubated at room temperature with shaking for 30 minutes. The kinase concentration in the eluates was measured by qPCR.
(§3) An 11-point 3-fold serial dilution of each test compound was prepared in 100% DMSO at 100× final test concentration and subsequently diluted to 1× in the assay (final DMSO concentration=1%). Most Kd values were determined using a compound top concentration=30,000 nM. If the initial Kd determined was <0.5 nM, (the lowest concentration tested), the measurement was repeated with a serial dilution starting at a lower top concentration. A more detailed description of this assay may be found in Fabian, M. A. et al. Nat. Biotechnol. 2005, 23, 329-336, which is incorporated herein in its entirety.
(§4) The biological results of inhibition of the kinase domain protein of RC kinase (RCK) and JAK2 and JAK3 are summarized in Tables 2 and 3, wherein A represents a Kd of <50 nM; B represents 50 nM<Kd<100 nM; C represents 100 nM<Kd<1000 nM; and D represents a Kd>1000 nM.

[2] = molecular target: T2, JAK2 (Homo sapiens, UniProt O60674); test: Kinase competition binding assay (Kd, qPCR readout), JAK2; settings: for Kd: Kd class, JAK2, read-out: JAK2 Activity Level; for RCK:JAK2 selectivity ratio: ratio Kd (JAK2): Kd(RCK)
T2 construct: made in house; host or cells: E. coli BL21-derived host (T7 phage) or HEK-293
Protocol: as §1, §2, §3, §4
Additionally, RCK:JAK2 selectivity, as measured by the ratio Kd (JAK2): Kd(RCK) is represented as follows: A represents Kd (JAK2): Kd (RCK)>100; B represents 10<Kd(JAK2): Kd (RCK)<100; C represents 1<Kd (JAK2): Kd (RCK)<10; and D represents Kd(JAK2): Kd (RCK)<1.

[3] = molecular target: T3, JAK3 (Homo sapiens, UniProt P52333); test: Kinase competition binding assay (Kd, qPCR readout), JAK3; settings: for Kd: Kd class, JAK3, read-out: JAK3 Activity Level; for RCK:JAK3 selectivity ratio: ratio Kd (JAK3): Kd (RCK)
T3 construct: made in house; host or cells: E. coli BL21-derived host (T7 phage) or HEK-293
Protocol: as §1, §2, §3, §4
Similarly, RCK:JAK3 selectivity, as measured by the ratio Kd (JAK3): Kd (RCK) is represented as follows: A represents Kd (JAK3): Kd (RCK)>100; B represents 10<Kd (JAK3): Kd (RCK)<100; C represents 1<Kd (JAK3): Kd (RCK)<10; and D represents Kd (JAK3): Kd(RCK)<1.

T2 sequence (O60674 840-1132 limits assumed): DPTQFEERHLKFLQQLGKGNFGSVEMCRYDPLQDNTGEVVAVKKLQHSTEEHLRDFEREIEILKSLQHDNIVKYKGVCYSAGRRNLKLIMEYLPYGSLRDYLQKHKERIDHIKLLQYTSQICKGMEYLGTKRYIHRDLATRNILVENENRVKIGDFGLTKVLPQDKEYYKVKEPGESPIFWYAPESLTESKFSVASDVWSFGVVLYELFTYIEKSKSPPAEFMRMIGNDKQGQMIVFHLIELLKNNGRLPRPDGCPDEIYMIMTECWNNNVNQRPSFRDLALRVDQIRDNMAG
T3 sequence (P52333 811-1124 limits assumed): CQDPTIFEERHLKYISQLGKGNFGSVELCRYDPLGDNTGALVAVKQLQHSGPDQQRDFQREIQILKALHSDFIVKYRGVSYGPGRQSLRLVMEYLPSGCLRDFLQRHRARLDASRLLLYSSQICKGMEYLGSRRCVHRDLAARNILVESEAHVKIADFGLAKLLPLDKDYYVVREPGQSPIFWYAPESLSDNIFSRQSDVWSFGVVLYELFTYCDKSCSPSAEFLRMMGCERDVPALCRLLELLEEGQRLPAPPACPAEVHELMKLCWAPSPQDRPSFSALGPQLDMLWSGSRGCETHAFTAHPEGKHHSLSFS

Row | Structure (SMILES) | Kd [1] [nM] | Kd [2] [nM] | Kd [3] [nM] | RCK:JAK2 selectivity ratio [2] | RCK:JAK3 selectivity ratio [3]
1 | Cc1cc(CNc2[nH]nc(Nc3ccc(N4CCS(=O)(=O)CC4)cc3)c2C(N)=O)cc(C)c1O [Compound 32, 3-((4-(1,1-dioxidothiomorpholino)phenyl)amino)-5-((4-hydroxy-3,5-dimethylbenzyl)amino)-1H-pyrazole-4-carboxamide] | < 50 | 100 to 1000 | 100 to 1000 | C (C represents 1<Kd (JAK2): Kd (RCK)<10) | B (B represents 10<Kd (JAK3): Kd (RCK)<100)
2 | Cc1cc(CNc2[nH]nc(Nc3ccc(N4CCCCC4)cn3)c2C(N)=O)cc(C)c1O [Compound 33, 5-((4-hydroxy-3,5-dimethylbenzyl)amino)-3-((5-(piperidin-1-yl)pyridin-2-yl)amino)-1H-pyrazole-4-carboxamide] | 50 to 100 | 100 to 1000 | > 1000 | C (C represents 1<Kd (JAK2): Kd (RCK)<10) | B (B represents 10<Kd (JAK3): Kd (RCK)<100)
3 | Cc1cc(CNc2[nH]nc(Nc3ccc(N4CCC(Cl)CC4)cc3)c2C(N)=O)cc(C)c1O [Compound 34, 3-((4-(4-chloropiperidin-1-yl)phenyl)amino)-5-((4-hydroxy-3,5-dimethylbenzyl)amino)-1H-pyrazole-4-carboxamide] | 50 to 100 | > 1000 | > 1000 | B (B represents 10<Kd(JAK2): Kd (RCK)<100) | B (B represents 10<Kd (JAK3): Kd (RCK)<100)
4 | Cc1cc(CNc2[nH]nc(Nc3ccc(CN4CCCC4)cc3)c2C(N)=O)cc(C)c1O [Compound 35, 5-((4-hydroxy-3,5-dimethylbenzyl)amino)-3-((4-(pyrrolidin-1-ylmethyl)phenyl)amino)-1H-pyrazole-4-carboxamide] | 50 to 100 | 100 to 1000 | > 1000 | C (C represents 1<Kd (JAK2): Kd (RCK)<10) | B (B represents 10<Kd (JAK3): Kd (RCK)<100)
5 | Cc1cc(CNc2[nH]nc(Nc3ccc(N4CCC(N(C)C)CC4)cc3)c2C(N)=O)cc(C)c1O [Compound 36, 3-((4-(4-(dimethylamino)piperidin-1-yl)phenyl)amino)-5-((4-hydroxy-3,5-dimethylbenzyl)amino)-1H-pyrazole-4-carboxamide] | < 50 | 100 to 1000 | > 1000 | B (B represents 10<Kd(JAK2): Kd (RCK)<100) | A (A represents Kd (JAK3): Kd (RCK)>100)
6 | Cc1cc(CNc2[nH]nc(Nc3ccc(N4CCOCC4)c(F)c3)c2C(N)=O)cc(C)c1O [Compound 37, 3-((3-fluoro-4-morpholinophenyl)amino)-5-((4-hydroxy-3,5-dimethylbenzyl)amino)-1H-pyrazole-4-carboxamide] | < 50 | > 1000 | > 1000 | B (B represents 10<Kd(JAK2): Kd (RCK)<100) | A (A represents Kd (JAK3): Kd (RCK)>100)
7 | Cc1cc(CNc2[nH]nc(Nc3ccc(-c4cnco4)cc3)c2C(N)=O)cc(C)c1O [Compound 38, 5-((4-hydroxy-3,5-dimethylbenzyl)amino)-3-((4-(oxazol-5-yl)phenyl)amino)-1H-pyrazole-4-carboxamide] | 100 to 1000 | > 1000 | > 1000 | A (A represents Kd (JAK2): Kd (RCK)>100) | A (A represents Kd (JAK3): Kd (RCK)>100)
8 | Cc1cc(CNc2[nH]nc(Nc3ccc(N4CCN(C(=O)N5CCOCC5)CC4)cc3)c2C(N)=O)cc(C)c1O [Compound 39, 5-((4-hydroxy-3,5-dimethylbenzyl)amino)-3-((4-(4-(morpholine-4-carbonyl)piperazin-1-yl)phenyl)amino)-1H-pyrazole-4-carboxamide] | 50 to 100 | < 50 | < 50 | B (B represents 10<Kd(JAK2): Kd (RCK)<100) | B (B represents 10<Kd (JAK3): Kd (RCK)<100)
9 | CC(=O)Nc1cccc(Nc2n[nH]c(NCc3cc(C)c(O)c(C)c3)c2C(N)=O)c1 [Compound 40, 3-((3-acetamidophenyl)amino)-5-((4-hydroxy-3,5-dimethylbenzyl)amino)-1H-pyrazole-4-carboxamide] | > 1000 | > 1000 | > 1000 | C (C represents 1<Kd (JAK2): Kd (RCK)<10) | C (C represents 1<Kd (JAK3): Kd (RCK)<10)
10 | Cc1cc(CNc2[nH]nc(Nc3ccc(N4CCN(C)CC4)c(Cl)c3)c2C(N)=O)cc(C)c1O [Compound 41, 3-((3-chloro-4-(4-methylpiperazin-1-yl)phenyl)amino)-5-((4-hydroxy-3,5-dimethylbenzyl)amino)-1H-pyrazole-4-carboxamide] | < 50 | 100 to 1000 | > 1000 | B (B represents 10<Kd(JAK2): Kd (RCK)<100) | A (A represents Kd (JAK3): Kd (RCK)>100)

The next lines start with results.

Row | Kd [1] [nM] | Kd [2] [nM] | Kd [3] [nM] | Structure (SMILES) | RCK:JAK2 selectivity ratio [2] | RCK:JAK3 selectivity ratio [3]
11 | > 1000 | > 1000 | > 1000 | Cc1cc(CNc2[nH]nc(Nc3ccc(F)cc3)c2C(N)=O)cc(C)c1O [Compound 42, 3-((4-fluorophenyl)amino)-5-((4-hydroxy-3,5-dimethylbenzyl)amino)-1H-pyrazole-4-carboxamide] | B (B represents 10<Kd(JAK2): Kd (RCK)<100) | B (B represents 10<Kd (JAK3): Kd (RCK)<100)
12 | > 1000 | > 1000 | > 1000 | Cc1cc(CNc2[nH]nc(Nc3cccc(C#N)c3)c2C(N)=O)cc(C)c1O [Compound 43, 3-((3-cyanophenyl)amino)-5-((4-hydroxy-3,5-dimethylbenzyl)amino)-1H-pyrazole-4-carboxamide] | D (D represents Kd(JAK2): Kd (RCK)<1) | C (C represents 1<Kd (JAK3): Kd (RCK)<10)
13 | 100 to 1000 | > 1000 | > 1000 | Cc1cc(CNc2[nH]nc(Nc3ccc(N4CCN(c5ncccn5)CC4)cc3)c2C(N)=O)cc(C)c1O [Compound 44, 5-((4-hydroxy-3,5-dimethylbenzyl)amino)-3-((4-(4-(pyrimidin-2-yl)piperazin-1-yl)phenyl)amino)-1H-pyrazole-4-carboxamide] | B (B represents 10<Kd(JAK2): Kd (RCK)<100) | B (B represents 10<Kd (JAK3): Kd (RCK)<100)
14 | < 50 | 100 to 1000 | 100 to 1000 | Cc1cc(CNc2[nH]nc(Nc3ccc(CN4CCCCC4)cc3)c2C(N)=O)cc(C)c1O [Compound 45, 5-((4-hydroxy-3,5-dimethylbenzyl)amino)-3-((4-(piperidin-1-ylmethyl)phenyl)amino)-1H-pyrazole-4-carboxamide] | C (C represents 1<Kd (JAK2): Kd (RCK)<10) | B (B represents 10<Kd (JAK3): Kd (RCK)<100)
15 | < 50 | 100 to 1000 | > 1000 | Cc1cc(CNc2[nH]nc(Nc3ccc(N4CCSCC4)cc3)c2C(N)=O)cc(C)c1O [Compound 46, 5-((4-hydroxy-3,5-dimethylbenzyl)amino)-3-((4-thiomorpholinophenyl)amino)-1H-pyrazole-4-carboxamide] | B (B represents 10<Kd(JAK2): Kd (RCK)<100) | B (B represents 10<Kd (JAK3): Kd (RCK)<100)
